In ChEMBL document CHEMBL1201862, “PubChem BioAssay data set” (2004):
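1) Cells in 96-well plates. 2) Compound, 48 h, 5 concentrations. 3) Linear interpolation between surrounding doses. 4) Unreached endpoint = highest concentration. GI50 is the concentration that inhibits growth by half.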 Active and inactive are the calls of the source. Rule as the data show it: active = GI50 up to about 1.1 µM and inactive = higher.

Columns and labels:
Assay in all cases: NCI-60 cell line screen, 48 h
[1] = tested on: T47D
[2] = tested on: PC-3
[3] = tested on: UACC-257
[4] = tested on: HCT-116
[5] = tested on: SK-MEL-28
[6] = tested on: ACHN
[7] = tested on: SK-MEL-5
[8] = tested on: MDA-N
[9] = tested on: OVCAR-8
[10] = tested on: MCF7
[11] = tested on: MDA-MB-231
[12] = tested on: SF-295
[13] = tested on: NCI-H23
[14] = tested on: NCI-H460
[15] = tested on: U-251
[16] = tested on: Hs-578T
[17] = tested on: UO-31
[18] = tested on: Malme-3M
[19] = tested on: SR

Measured: GI50

CC(=O)N1CC(C)(C)c2c1cc(C)c(O)c2C
inactive: [1] > 100 µM | [2] > 100 µM | [3] > 100 µM | [4] > 100 µM | [5] > 100 µM | [6] > 100 µM | [7] > 100 µM | [8] > 100 µM | [9] > 100 µM | [10] > 100 µM | [11] > 100 µM | [12] > 100 µM | [13] > 100 µM | [14] > 100 µM | [15] > 100 µM | [16] > 100 µM | [17] > 100 µM

C=C(C)[C@H]1C2=CC(C(=O)OC)=C(C[C@H](C(=C)C)[C@@H](O)[C@@H](O)C3=C[C@H]1OC3=O)O2
inactive: [1] > 100 µM | [3] > 100 µM | [4] > 100 µM | [6] > 100 µM | [7] > 100 µM | [8] > 100 µM | [9] > 100 µM | [10] > 100 µM | [11] > 100 µM | [12] > 100 µM | [13] > 100 µM | [18] > 100 µM | [15] > 100 µM | [16] > 100 µM | [17] 18 µM

CN(C)c1ccc(/C=N/NC2=N/C(=C\c3ccco3)C(=O)N2)cc1
inactive: [1] > 100 µM | [2] > 100 µM | [3] > 100 µM | [4] > 100 µM | [5] > 100 µM | [6] > 100 µM | [7] > 100 µM | [8] > 100 µM | [9] > 100 µM | [11] > 100 µM | [12] > 100 µM | [13] > 100 µM | [18] > 100 µM | [14] > 100 µM | [15] > 100 µM | [16] > 100 µM | [17] > 100 µM

O=C(Cc1ccccc1)NNc1nc(NNC(=O)c2ccncc2)nc(Nc2ccc(Cl)cc2)n1
inactive: [1] > 10 µM | [3] > 10 µM | [5] > 10 µM | [7] > 10 µM | [8] > 10 µM | [9] > 10 µM | [10] > 10 µM | [11] > 10 µM | [13] > 10 µM | [18] > 10 µM | [15] > 10 µM | [16] > 10 µM | [19] > 10 µM | [17] > 10 µM

CCCCCCc1cc2cc(C(=O)Nc3ccccc3)c(=N)oc2cc1O
inactive: [1] 2.33 µM | [2] 2.86 µM | [3] 4.63 µM | [4] 2.5 µM | [5] 6.87 µM | [6] 3.44 µM | [7] 2.56 µM | [8] 3.88 µM | [9] 3.93 µM | [10] 4.35 µM | [11] 3.36 µM | [12] 3.05 µM | [13] 2.36 µM | [18] 1.98 µM | [14] 3.24 µM | [15] 2.99 µM | [16] 3.21 µM | [17] 2.82 µM

CN(CCc1ccc(N)cc1)[C@H]1CCCC[C@H]1N1CCCC1
inactive: [1] > 100 µM | [2] > 100 µM | [3] > 100 µM | [4] > 100 µM | [5] > 100 µM | [6] > 100 µM | [7] > 100 µM | [8] > 100 µM | [9] > 100 µM | [10] > 100 µM | [11] > 100 µM | [12] > 100 µM | [13] > 100 µM | [18] > 100 µM | [14] > 100 µM | [15] > 100 µM | [16] > 100 µM | [17] > 100 µM
